This is an account of results in ChEMBL document CHEMBL1201862, “PubChem BioAssay data set” (2004).

Some test systems named below: MDA-MB-435; DU-145; CCRF-CEM; SF-539; RPMI-8226; PC-3; KM12; OVCAR-4; IGROV-1; Hs-578T; SK-MEL-2; A549; HCC 2998; SNB-75; OVCAR-8; OVCAR-3; HCT-15; EKVX; BT-549; RXF 393.
Assay in all cases: DTP human tumour cell line panel, 48 h

Usually GI50 stands for the concentration that inhibits growth by half.

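Five concentrations, 48 hours, 96-well plates. Abbreviation: GI50, concentration required for 50% inhibition of growth.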 The source made the active and inactive calls. Cut-off read from the data, not from the text of the source: active = GI50 up to about 1.1 µM and inactive = higher. Where only a bound is given, the exact number is not on record here.

As to `N=C(N)NS(=O)(=O)c1ccc(NC(=O)c2ccc3nc4ccccc4c(Nc4ccc(S(N)(=O)=O)cc4)c3c2)cc1`, the GI50 in the experiment with MDA-MB-435, with DU-145, with CCRF-CEM, in the experiment on SF-539, in the experiment on RPMI-8226 and with PC-3 was > 100 µM (inactive) throughout. Further, the GI50 with KM12, in the experiment with OVCAR-4, in the experiment with IGROV-1, in the experiment with Hs-578T, in the experiment on SK-MEL-2 and with A549 was > 100 µM (inactive) each time. For the same compound, the GI50 with HCC 2998 was > 100 µM (inactive); in the experiment on SNB-75, > 100 µM (inactive); in the experiment with OVCAR-8, > 100 µM (inactive); in the experiment with OVCAR-3, > 100 µM (inactive); in the experiment with HCT-15, over 100 µM; in the experiment on EKVX, > 100 µM (inactive). The GI50 in the experiment on BT-549 and with RXF 393 was > 100 µM (inactive) in each case.
For `CCCC(CCC)C(=O)O` [VALPROIC ACID], the GI50 was 10900 µM (inactive) with MDA-MB-435; 10200 µM (inactive) in the experiment on DU-145; 14800 µM (inactive) with CCRF-CEM; 15200 µM (inactive) with SF-539; 4070 µM (inactive) with RPMI-8226; 16900 µM (inactive) in the experiment on PC-3. The GI50 with KM12 is 14300 µM (inactive); in the experiment with OVCAR-4, 3720 µM (inactive); with IGROV-1, 5430 µM (inactive); in the experiment with Hs-578T, 12100 µM (inactive); in the experiment on SK-MEL-2, 8000 µM (inactive); in the experiment on A549, 9060 µM (inactive). The GI50 with HCC 2998 was 5710 µM (inactive); with SNB-75, 6150 µM (inactive); with OVCAR-8 it was 3920 µM (inactive); with OVCAR-3, 12900 µM (inactive); with HCT-15 it was 8090 µM; in the experiment with EKVX, > 100 µM (inactive). Also, the GI50 with BT-549 is 12200 µM (inactive); in the experiment with RXF 393, 2570 µM (inactive).
